For orientation: EC50 means the concentration giving half of the maximal effect.

Assay [1] relates to IRF pathway, THP1-Dual™ cells. The assay is described as follows: STING reporter assay in THP1-Dual cells, IRF pathway (Lucia luciferase, QUANTI-Luc). The class given is cell-based, human. Particulars: read-out: IRF (EC50 μM). The essentials:
(§1)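 Activation normalised between DMSO-only baseline and 100 μM cGAMP maximum, after 20 h compound exposure (starting at 100 μM final) at 37° C, 5% CO2. Supernatant SEAP (QUANTI-Blue, OD620) reports NF-κB; secreted luciferase (QUANTI-Luc, RLU at 5 min) reports IRF.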
(In a reporter assay the amount or activity of a reporter protein is the signal.)

For assay [2], the system named is NF-κB pathway, THP1-Dual™ cells. Description: STING reporter assay in THP1-Dual cells, NF-κB pathway (SEAP, QUANTI-Blue). Format: cell-based, human. The conditions noted are these: read-out: NFkB (EC50 μM). The essentials: as §1
[3] abbreviates: THP1-Dual cells, 10% human plasma, 20 hours, Lucia luciferase, 100% activation = 100 μM cGAMP.
The mark [4] stands for this setting: THP1-Dual cells, 10% human plasma, 20 hours, SEAP, 100% activation = 100 μM cGAMP.
The mark [5] stands for this setting: Homo sapiens, THP1-Dual, 20 h, THP1-Dual cells, 10% human plasma, 20 hours, Lucia luciferase, 100% activation = 100 μM cGAMP.
Where [6] appears, read: Homo sapiens, THP1-Dual, 20 h, THP1-Dual cells, 10% human plasma, 20 hours, SEAP, 100% activation = 100 μM cGAMP.

Like-named read-outs stand apart in the source and are kept apart here. Where only a bound is given, the exact number is not on record here.

As for `COC(OC(=O)c1cc(Cl)cc2cc(CNC(=O)c3cnn4cccnc34)oc12)C(F)(F)F` (single isomer, unassigned) [EXAMPLE 332, 2,2,2-Trifluoro-1-methoxyethyl 5-chloro-2-((pyrazolo[1,5-a]pyrimidine-3-carboxamido)methyl)benzofuran-7-carboxylate], the EC50 in assay [1] (setting [3]) and in assay [2] (setting [4]) was 1.1 µM in each case.

For the compound `O=C(NCc1cc2cc(Cl)cc(-c3nnn[nH]3)c2o1)c1cncc2cccnc12` [EXAMPLE 410, N-((5-Chloro-7-(1H-tetrazol-5-yl)benzofuran-2-yl)methyl)-1,6-naphthyridine-8-carboxamide], the EC50 in assay [1] (setting [5]) was 79 µM; in assay [2] (setting [6]), greater than 100 µM.

On to `CSC(=O)c1cc(F)cc2cc(Cn3cnc4ccncc4c3=O)oc12` [EXAMPLE 385, S-Methyl 5-fluoro-2-((4-oxopyrido[4,3-d]pyrimidin-3(4H)-yl)methyl)benzofuran-7-carbothioate], for which the EC50 in assay [1] (setting [5]) came to 2.1 µM; in assay [2] (setting [6]), 2.5 µM.

Turning to `COC(=O)Cc1cc(C)cc2cc(CNC(=O)c3cnn4cccnc34)oc12` [Example 98, Methyl 2-(5-methyl-2-((pyrazolo[1,5-a]pyrimidine-3-carboxamido)methyl)benzofuran-7-yl)acetate], the EC50 stood at 11 µM in assay [1] (setting [5]) and 10 µM in assay [2] (setting [6]).

For the compound `COC(=O)c1cc(Cl)cc2cc(CNC(=O)c3cncc4scnc34)oc12` [Example 72, Methyl 5-chloro-2-((thiazolo[5,4-c]pyridine-7-carboxamido)methyl)benzofuran-7-carboxylate], the EC50 in assay [1] (setting [5]) amounted to 1.2 µM; in assay [2] (setting [6]), 17 µM.

Take `COC(OC(=O)c1cc(F)cc2cc(CNC(=O)c3cnc4cccnn34)oc12)C(F)(F)F` (single isomer, unassigned) [EXAMPLE 313, 2,2,2-Trifluoro-1-methoxyethyl 5-fluoro-2-((imidazo[1,2-b]pyridazine-3-carboxamido)methyl)benzofuran-7-carboxylate]: the EC50 in assay [1] (setting [5]) is 3.1 µM; in assay [2] (setting [6]), 3 µM.

For `O=C(OC1CC(F)(F)C1)c1cc(F)cc2cc(CNC(=O)c3cnn4cccnc34)oc12` [EXAMPLE 236, 3,3-Difluorocyclobutyl 5-fluoro-2-((pyrazolo[1,5-a]pyrimidine-3-carboxamido)methyl)benzofuran-7-carboxylate], the results for the concentration for a half-maximal effect (EC50) in assay [1] (setting [5]) and in assay [2] (setting [6]) were 1.3 µM and 1.8 µM, respectively.

On to `CCSC(=O)c1cc(C)cc2cc(CNC(=O)c3cnn4cccnc34)oc12` [EXAMPLE 390, S-Ethyl 5-methyl-2-((pyrazolo[1,5-a]pyrimidine-3-carboxamido)methyl)benzofuran-7-carbothioate], for which the EC50 in assay [1] (setting [5]) worked out at 0.53 µM; in assay [2] (setting [6]), 0.29 µM.

As to `O=C(O)c1cc(F)cc2c(Cl)c(CNC(=O)c3cnn4cccnc34)oc12` [EXAMPLE 172, 3-chloro-5-fluoro-2-((pyrazolo[1,5-a]pyrimidine-3-carboxamido)methyl)benzofuran-7-carboxylic acid], the figures for the EC50 in assay [1] (setting [5]) and in assay [2] (setting [6]) were 62 µM and 74 µM, respectively.

Regarding `C[C@H](NC(=O)c1cnn2cccnc12)c1cc2cc(F)cc(C(=O)SCC[Si](C)(C)C)c2o1` [EXAMPLE 398, S-(2-(Trimethylsilyl)ethyl) (S)-5-fluoro-2-(1-(pyrazolo[1,5-a]pyrimidine-3-carboxamido)ethyl)benzofuran-7-carbothioate], the EC50 came to 9.4 µM in assay [1] (Homo sapiens, THP1-Dual, 20 h) and 5.7 µM in assay [2] (Homo sapiens, THP1-Dual, 20 h).

Turning to `COC(=O)c1cc(Cl)cc2cc(CNC(=O)c3cnn4cc(Cl)cnc34)oc12` [Example 57, Methyl 5-chloro-2-((6-chloropyrazolo[1,5-a]pyrimidine-3-carboxamido)methyl) benzofuran-7-carboxylate], the EC50 in assay [1] (setting [3]) came to 9.5 µM; in assay [2] (setting [4]) it was 8.1 µM.

Regarding `O=C(OCC(F)(F)F)c1cc(Cl)cc2cc(CNC(=O)c3cnn4cccnc34)oc12` [EXAMPLE 239, 2,2,2-Trifluoroethyl 5-chloro-2-((pyrazolo[1,5-a]pyrimidine-3-carboxamido)methyl)benzofuran-7-carboxylate], the EC50 was 0.53 µM in assay [1] (setting [5]) and 0.39 µM in assay [2] (setting [6]).

In the case of `CC(OC(=O)c1ccc(Cl)c2cc(CNC(=O)c3cnn4cccnc34)oc12)C(F)(F)F` (centres unmarked) [EXAMPLE 311, 1,1,1-Trifluoropropan-2-yl 4-chloro-2-((pyrazolo[1,5-a]pyrimidine-3-carboxamido)methyl)benzofuran-7-carboxylate], the EC50 in assay [1] (setting [3]) turned out to be 2 µM; in assay [2] (setting [4]), 2.3 µM.

As to `COC(=O)c1cc(F)c(F)c2cc(CN3CCc4ccncc4C3=O)oc12` [EXAMPLE 125, Methyl 4,5-difluoro-2-((1-oxo-3,4-dihydro-2,7-naphthyridin-2(1H)-yl)methyl)benzofuran-7-carboxylate], the EC50 is 3.9 µM in assay [1] (setting [5]) and 4.4 µM in assay [2] (setting [6]).

In the case of `COC(=O)c1cccc2cc(CNC(=O)c3cncc4cccnc34)oc12` [EXAMPLE 14, Methyl 2-((1,6-naphthyridine-8-carboxamido)methyl)benzofuran-7-carboxylate], the EC50 in assay [1] (setting [5]) is 3.8 µM; in assay [2] (setting [6]) it was 6 µM.

`CC(OC(=O)c1cc(Cl)cc2cc(CNC(=O)c3cnn4cccnc34)oc12)C(F)(F)F` (single isomer, unassigned) [EXAMPLE 330, 1,1,1-Trifluoropropan-2-yl 5-chloro-2-((pyrazolo[1,5-a]pyrimidine-3-carboxamido)methyl)benzofuran-7-carboxylate]: the EC50 stood at 4.7 µM in assay [1] (setting [3]) and 5.5 µM in assay [2] (setting [4]).

With `Cc1cc(C(=O)OC(C)C(F)(F)F)c2oc(CNC(=O)c3cnn4cccnc34)cc2c1` (centres unmarked) [EXAMPLE 378, 1,1,1-Trifluoropropan-2-yl 5-methyl-2-((pyrazolo[1,5-a]pyrimidine-3-carboxamido)methyl)benzofuran-7-carboxylate], the EC50 in assay [1] (setting [5]) turned out to be 1.3 µM; in assay [2] (setting [6]), 1.2 µM.

With `O=C(OCC(F)(F)F)c1cc(Cl)cc2cc(Cn3ccc4ccncc4c3=O)oc12` [EXAMPLE 372, 2,2,2-Trifluoroethyl 5-chloro-2-((1-oxo-2,7-naphthyridin-2(1H)-yl)methyl)benzofuran-7-carboxylate], the EC50 was 3.7 µM in assay [1] (setting [5]) and 4.6 µM in assay [2] (setting [6]).

With `C[C@H](NC(=O)c1cnn2cccnc12)c1cc2cc(Cl)cc(C(=O)O[C@H](C)C(F)(F)F)c2o1` [EXAMPLE 268, (R)-1,1,1-Trifluoropropan-2-yl 5-chloro-2-((S)-1-(pyrazolo[1,5-a]pyrimidine-3-carboxamido)ethyl)benzofuran-7-carboxylate], the EC50 in assay [1] (setting [5]) stood at 6.1 µM; in assay [2] (setting [6]) it was 5.6 µM.

Consider `Cc1ccn2ncc(C(=O)NCc3cc4cccc(C(=O)OCC(F)(F)F)c4o3)c2n1` [EXAMPLE 219, 2,2,2-Trifluoroethyl 2-((5-methylpyrazolo[1,5-a]pyrimidine-3-carboxamido)methyl)benzofuran-7-carboxylate], for which the 50% effective concentration (EC50) in assay [1] (setting [5]) was 7.7 µM; in assay [2] (setting [6]) it was 10 µM.

In the case of `C=Cc1c(CNC(=O)c2cnn3cccnc23)oc2c(C(=O)OC)cc(C)cc12` [EXAMPLE 124, Methyl 5-methyl-2-((pyrazolo[1,5-a]pyrimidine-3-carboxamido)methyl)-3-vinylbenzofuran-7-carboxylate], the EC50 in assay [1] (setting [5]) is 5.7 µM; in assay [2] (setting [6]) it was 6.7 µM.

For the compound `CSC(=O)c1cc(Cl)cc2cc([C@H](C)NC(=O)c3cnn4cccnc34)oc12` [EXAMPLE 401], the EC50 in assay [1] (setting [5]) and in assay [2] (setting [6]) was 1.9 µM throughout.

Values taken from patent US12673954B2 (BRISTOL-MYERS SQUIBB COMPANY, priority 2021, dated 2026).
